Series [1] has as its system Homo sapiens. Kind of series: Antiplatelet activity in human assessed as inhibition of ADP-induced platelet aggregation at 100 mg, po after 4 hrs. The arrangement: scale not given: the % may be the effect or the level left. Type of series: functional.
The target of series [2] is P2Y purinoceptor 12 (Homo sapiens, UniProt Q9H244). In words: Displacement of [3H]2MeSADP from human P2Y12 preincubated for 5 mins followed by [3H]2MeSADP addition and measured after 15 mins by scintillation counting method. A general note: Loss of bound radioactivity is the signal in a displacement assay; it reports binding, not function.
P2Y purinoceptor 12, sequence (Q9H244 whole entry): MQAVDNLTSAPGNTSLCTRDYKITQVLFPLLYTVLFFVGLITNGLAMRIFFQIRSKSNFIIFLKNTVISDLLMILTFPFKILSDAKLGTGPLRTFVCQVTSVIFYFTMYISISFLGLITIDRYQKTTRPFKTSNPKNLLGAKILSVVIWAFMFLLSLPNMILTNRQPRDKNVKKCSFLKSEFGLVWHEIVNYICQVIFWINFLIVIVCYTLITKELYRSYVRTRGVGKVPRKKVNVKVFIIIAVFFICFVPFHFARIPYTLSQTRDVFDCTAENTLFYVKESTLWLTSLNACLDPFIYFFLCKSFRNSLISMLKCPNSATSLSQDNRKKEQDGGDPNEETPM
The nature of series [3]: Antiplatelet activity in human platelet rich plasma assessed as inhibition of ADP-induced platelet aggregation. Type of series: functional, cell-based.
Series [4] is described as follows: Half life in human plasma. The series is classed as ADME, cell-free.

For orientation: IC50 means the concentration that gives 50% inhibition. Broadly, the half-life is how long it takes for the measured level to halve. Turning to `CNc1cc2[nH]c(=O)n(-c3ccc(NC(=O)NS(=O)(=O)c4ccc(Cl)s4)cc3)c(=O)c2cc1F` [ELINOGREL], the Activity in series [1] is 60%. Further, the IC50 turned out to be 0.05 µM in series [2] and 10 µM in series [3]. In series [4], the half-life was 12 h.
